Where “and” joins values, the source holds several entries; their conditions need not be identical. Equal entries are not always repeated. Calls of active or inactive are those of the source.
Key:
[1] = molecular target: NADPH oxidase 1 (Homo sapiens, UniProt Q9Y5S8); test: Late-stage luminescence-based cell-based dose response assay to identify inhibitors of NADPH oxidase 1 (NOX1): Purchased analogs 2.; assay type: functional
[2] = system: BJ; test: BJ-TERT fibroblast viability loss – cell-based, RAS-independent, luminescence, dose response (AID 1933); assay type: functional; conditions: Homo sapiens
[3] = system: BJ; test: cells; assay type: functional, cell-based; conditions: Homo sapiens
[4] = system: BJ; test: BJ-TERT-LT-ST fibroblast viability loss – cell-based, RAS-independent, luminescence, dose response (AID 1935); assay type: functional; conditions: Homo sapiens;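 note: BJ fibroblasts immortalized with TERT plus LT and ST oncogenes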
[5] = DRD fibroblast viability loss – cell-based, non-viral oncogenic, luminescence, dose response (AID 1934); assay type: functional; conditions: Homo sapiens
[6] = toxicity toward HEK293 cells – cell-based, dry powder samples, cytotoxicity control, dose response (AID 720567); assay type: functional
[7] = toxicity toward HepG2 hepatoma cells – cell-based, dry powder samples, cytotoxicity control, dose response (AID 720568); assay type: functional
[8] = molecular target: Paired box protein Pax-8 (Homo sapiens, UniProt Q06710); test: PAX8 transcriptional activity inhibition in RMG-I – RMG-I cells, luciferase, cherry-pick, dose response (AID 687027); assay type: functional, cell-based;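 note: luciferase reporter driven by Pax8 target thyroperoxidase promoter measured by SteadyGlo luminescence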
Paired box protein Pax-8, sequence (Q06710 whole entry): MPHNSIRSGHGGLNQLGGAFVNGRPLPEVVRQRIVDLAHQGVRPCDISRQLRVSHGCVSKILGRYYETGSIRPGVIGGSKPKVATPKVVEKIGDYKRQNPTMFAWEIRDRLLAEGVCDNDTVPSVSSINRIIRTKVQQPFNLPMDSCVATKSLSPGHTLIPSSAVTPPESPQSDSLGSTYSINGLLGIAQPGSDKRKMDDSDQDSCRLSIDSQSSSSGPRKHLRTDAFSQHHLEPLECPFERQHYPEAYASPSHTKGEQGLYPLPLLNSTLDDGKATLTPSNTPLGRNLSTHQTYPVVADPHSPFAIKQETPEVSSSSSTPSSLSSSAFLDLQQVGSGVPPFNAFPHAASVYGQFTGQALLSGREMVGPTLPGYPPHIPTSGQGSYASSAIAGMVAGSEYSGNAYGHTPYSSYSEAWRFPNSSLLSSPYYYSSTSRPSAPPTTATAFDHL

[9] = inhibitors acting on PAX2 in cells – cell-based, plate reader, dry powder samples, selectivity assay for PAX8 inhibitor project, dose response (AID 743048); assay type: functional;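 note: HEK293 cells carrying a WT1 promoter luciferase reporter driven by expressed Pax2; potency is for inhibition of Pax2 driven reporter signal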
[10] = PAX5 cellular inhibition readout – cell-based, plate reader, dry powder samples, selectivity assay for PAX8 inhibitor project, dose response (AID 743047); assay type: functional;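 note: HEK293 cells carrying a Pax5 driven CD19 promoter luciferase reporter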
[11] = PAX8-dependent cell viability loss – plate reader, dry powder, dose response (AID 743049); assay type: functional, cell-based
[12] = Dd2 parasite growth inhibition in erythrocytes – SYBR Green, dry powder samples, set 9, dose response (AID 1159568); assay type: functional, cell-based
[13] = IC50 of insulin release inhibition, rat insulinoma INS-1E line, 5 mM glucose, cell-based (AID 1117331); assay type: functional
[14] = cells; assay type: functional, cell-based; conditions: INS-1E
[15] = molecular target: Estrogen receptor beta (Homo sapiens, UniProt Q92731); test: blockers of SRC-3 recruitment to ERβ – biochemical, ELISA, streptavidin-HRP readout, orthogonal assay, confirmation (AID 1060)
Estrogen receptor beta, sequence (Q92731 whole entry): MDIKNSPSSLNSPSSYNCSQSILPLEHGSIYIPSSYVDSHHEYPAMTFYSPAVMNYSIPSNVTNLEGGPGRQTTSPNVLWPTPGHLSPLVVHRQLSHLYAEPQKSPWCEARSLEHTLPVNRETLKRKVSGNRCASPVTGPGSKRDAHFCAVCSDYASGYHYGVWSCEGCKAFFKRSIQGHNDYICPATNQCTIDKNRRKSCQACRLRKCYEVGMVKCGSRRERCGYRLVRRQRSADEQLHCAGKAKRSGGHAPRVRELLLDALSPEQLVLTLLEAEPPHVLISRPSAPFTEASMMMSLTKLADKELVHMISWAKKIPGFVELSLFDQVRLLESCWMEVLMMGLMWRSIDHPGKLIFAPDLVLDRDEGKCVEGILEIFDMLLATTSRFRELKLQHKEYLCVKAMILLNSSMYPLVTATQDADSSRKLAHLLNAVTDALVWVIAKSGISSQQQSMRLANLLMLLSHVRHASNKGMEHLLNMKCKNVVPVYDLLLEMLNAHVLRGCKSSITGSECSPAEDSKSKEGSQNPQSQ

[16] = molecular target: Ephrin type-A receptor 4 (Mus musculus, UniProt Q03137); test: EphA4 ligand-binding antagonists – biochemical, colorimetric, mouse EphA4, primary screen (AID 689); assay type: functional
Ephrin type-A receptor 4, sequence (Q03137 whole entry): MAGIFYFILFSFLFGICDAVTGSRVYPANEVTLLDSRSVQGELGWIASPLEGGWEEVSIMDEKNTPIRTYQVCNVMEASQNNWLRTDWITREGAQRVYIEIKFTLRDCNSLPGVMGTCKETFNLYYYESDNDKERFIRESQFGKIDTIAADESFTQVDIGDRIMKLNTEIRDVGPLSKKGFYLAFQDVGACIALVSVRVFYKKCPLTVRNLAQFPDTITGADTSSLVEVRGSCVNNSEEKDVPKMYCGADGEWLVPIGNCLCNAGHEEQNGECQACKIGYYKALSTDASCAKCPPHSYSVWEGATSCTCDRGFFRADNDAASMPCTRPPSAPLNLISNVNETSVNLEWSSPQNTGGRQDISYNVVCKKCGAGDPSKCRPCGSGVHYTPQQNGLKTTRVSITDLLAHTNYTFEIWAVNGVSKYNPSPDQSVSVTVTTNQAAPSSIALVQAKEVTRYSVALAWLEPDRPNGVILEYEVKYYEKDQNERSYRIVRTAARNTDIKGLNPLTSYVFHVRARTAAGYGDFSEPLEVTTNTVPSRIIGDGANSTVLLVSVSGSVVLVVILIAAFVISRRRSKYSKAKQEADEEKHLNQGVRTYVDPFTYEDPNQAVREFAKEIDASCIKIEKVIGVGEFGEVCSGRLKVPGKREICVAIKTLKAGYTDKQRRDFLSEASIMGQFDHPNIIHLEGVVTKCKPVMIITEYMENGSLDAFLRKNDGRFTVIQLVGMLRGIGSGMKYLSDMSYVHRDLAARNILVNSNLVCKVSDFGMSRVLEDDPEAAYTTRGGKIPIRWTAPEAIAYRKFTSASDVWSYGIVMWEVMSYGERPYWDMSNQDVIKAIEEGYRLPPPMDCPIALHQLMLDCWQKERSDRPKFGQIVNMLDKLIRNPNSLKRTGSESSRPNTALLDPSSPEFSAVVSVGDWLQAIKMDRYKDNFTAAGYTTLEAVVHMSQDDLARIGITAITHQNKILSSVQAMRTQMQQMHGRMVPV

[17] = molecular target: Induced myeloid leukemia cell differentiation protein Mcl-1 (Homo sapiens, UniProt Q07820); assay type: functional
Induced myeloid leukemia cell differentiation protein Mcl-1, sequence (Q07820 whole entry): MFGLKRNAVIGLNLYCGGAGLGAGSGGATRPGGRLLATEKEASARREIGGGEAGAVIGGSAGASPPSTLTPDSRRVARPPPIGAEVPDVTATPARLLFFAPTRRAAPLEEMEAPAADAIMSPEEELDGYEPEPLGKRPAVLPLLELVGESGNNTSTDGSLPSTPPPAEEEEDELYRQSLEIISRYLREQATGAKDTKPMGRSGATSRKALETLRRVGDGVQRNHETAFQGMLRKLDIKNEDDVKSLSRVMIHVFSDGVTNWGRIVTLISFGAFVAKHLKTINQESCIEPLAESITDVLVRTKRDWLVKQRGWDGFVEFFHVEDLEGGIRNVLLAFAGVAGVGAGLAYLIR

[18] = molecular target: T1, Tyrosine-protein phosphatase non-receptor type 7 (Homo sapiens, UniProt P35236); test: redox-active compounds inhibiting HePTP phosphatase – biochemical, fluorescence, mechanism study (AID 2068); assay type: functional
T1 sequence (P35236 whole entry): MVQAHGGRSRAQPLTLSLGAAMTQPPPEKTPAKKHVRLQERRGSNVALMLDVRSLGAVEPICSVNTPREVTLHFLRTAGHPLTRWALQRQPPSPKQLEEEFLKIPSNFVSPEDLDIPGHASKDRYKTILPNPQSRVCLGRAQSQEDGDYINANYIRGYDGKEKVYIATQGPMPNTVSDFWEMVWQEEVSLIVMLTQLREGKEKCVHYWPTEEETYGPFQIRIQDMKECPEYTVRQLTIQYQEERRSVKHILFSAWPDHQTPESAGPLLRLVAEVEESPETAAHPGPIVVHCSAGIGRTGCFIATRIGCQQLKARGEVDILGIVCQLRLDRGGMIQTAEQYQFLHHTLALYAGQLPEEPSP

[19] = molecular target: E3 ubiquitin-protein ligase Mdm2 (Homo sapiens, UniProt Q00987); test: MDM2-luc reporter signal enhancers, multi-concentration potency testing, MDM2 ubiquitin-protein ligase inhibitor program, whole-cell format, luminescence detection, 384-well microplate (AID 1394); assay type: functional;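 note: MDM2 E3 inhibitors raise luminescence so EC50 is for signal enhancement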
E3 ubiquitin-protein ligase Mdm2, sequence (Q00987 whole entry): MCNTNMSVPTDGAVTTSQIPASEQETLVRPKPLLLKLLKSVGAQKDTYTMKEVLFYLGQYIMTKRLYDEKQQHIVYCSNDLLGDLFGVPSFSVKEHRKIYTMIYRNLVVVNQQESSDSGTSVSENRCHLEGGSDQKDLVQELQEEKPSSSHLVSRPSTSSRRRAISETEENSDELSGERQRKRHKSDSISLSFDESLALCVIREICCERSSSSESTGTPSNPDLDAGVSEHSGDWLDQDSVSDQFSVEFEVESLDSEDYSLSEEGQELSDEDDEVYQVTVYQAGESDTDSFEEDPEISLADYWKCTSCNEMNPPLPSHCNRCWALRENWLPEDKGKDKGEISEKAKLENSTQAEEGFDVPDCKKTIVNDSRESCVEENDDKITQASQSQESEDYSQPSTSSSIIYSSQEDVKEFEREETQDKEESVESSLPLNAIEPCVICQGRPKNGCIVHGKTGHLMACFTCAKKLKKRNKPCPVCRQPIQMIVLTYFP

[20] = reduction of Shn3 3'UTR-driven luciferase in osteoblasts – cell-based, Clone20 osteoblasts, firefly luciferase, cherry-picked, dose response (AID 624132); assay type: functional;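 note: firefly luciferase luminescence from reporter carrying the Shn3 3'UTR in osteoblasts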
[21] = non-specific 3'UTR reporter inhibition in Clone20-Shn3RL – cell-based, Renilla luciferase, cherry-picked, counter-screen for Shn3 inhibitor project, dose response (AID 624133); assay type: functional
[22] = viability loss in HEK293T cells – cell-based, cherry-picks, cytotoxicity control for HIV Vif inhibitor project, dose response (AID 652208); assay type: functional
[23] = glucagon-like peptide-1 release potency in STC-1, concentration-response, half-maximal inhibitory concentration in the STC-1 line (AID 1117345); assay type: functional, cell-based
[24] = Potency on glucagon-like peptide 1 release, dose-response in NCI-H716 cell line, half maximal inhibitory concentration (AID 1117344); assay type: functional, cell-based
[25] = molecular target: T1, Tyrosine-protein phosphatase non-receptor type 7; test: HePTP tyrosine phosphatase activity blockers – biochemical, absorbance, leukemia target, primary screen (AID 521); assay type: functional
[26] = molecular target: T2, Beta-2 adrenergic receptor (Homo sapiens, UniProt P07550); test: Dose response for HTS for Beta-2AR agonists via FAP method from Powderset1.; assay type: functional
T2 sequence (P07550 whole entry): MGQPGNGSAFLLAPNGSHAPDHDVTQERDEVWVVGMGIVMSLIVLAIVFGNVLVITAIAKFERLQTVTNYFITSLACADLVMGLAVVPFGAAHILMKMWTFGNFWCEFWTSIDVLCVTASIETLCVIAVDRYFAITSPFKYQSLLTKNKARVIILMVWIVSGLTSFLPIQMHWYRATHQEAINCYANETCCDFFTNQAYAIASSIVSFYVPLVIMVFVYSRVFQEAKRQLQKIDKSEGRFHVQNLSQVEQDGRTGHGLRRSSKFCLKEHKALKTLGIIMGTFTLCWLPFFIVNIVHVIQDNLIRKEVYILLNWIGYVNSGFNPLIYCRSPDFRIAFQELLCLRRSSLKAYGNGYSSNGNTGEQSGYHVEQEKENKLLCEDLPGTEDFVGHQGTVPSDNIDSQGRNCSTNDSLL

[27] = molecular target: T2, Beta-2 adrenergic receptor; test: ADRB2 activation measured by internalization – cell-based, FAP fluorogen, flow cytometry, cherry pick 1, dose response (AID 588763); assay type: functional

NADPH oxidase 1, sequence (Q9Y5S8 whole entry): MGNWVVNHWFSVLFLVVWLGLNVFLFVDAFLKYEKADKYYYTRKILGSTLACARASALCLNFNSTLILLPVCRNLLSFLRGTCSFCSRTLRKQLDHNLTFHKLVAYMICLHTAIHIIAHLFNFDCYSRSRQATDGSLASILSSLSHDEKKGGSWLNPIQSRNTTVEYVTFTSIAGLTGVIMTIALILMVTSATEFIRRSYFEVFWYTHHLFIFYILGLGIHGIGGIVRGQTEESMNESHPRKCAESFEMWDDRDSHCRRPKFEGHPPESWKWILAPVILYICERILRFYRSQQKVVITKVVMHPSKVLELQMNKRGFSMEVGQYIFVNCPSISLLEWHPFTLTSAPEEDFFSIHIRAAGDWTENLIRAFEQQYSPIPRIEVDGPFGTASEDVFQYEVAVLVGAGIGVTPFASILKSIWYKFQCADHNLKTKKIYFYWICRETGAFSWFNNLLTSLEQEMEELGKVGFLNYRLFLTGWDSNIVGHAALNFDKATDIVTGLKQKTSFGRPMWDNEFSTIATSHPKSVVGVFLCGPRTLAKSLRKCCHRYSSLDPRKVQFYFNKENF

In the case of CN(CCO)c1ccc(/C=N/Nc2c(F)c(F)nc(F)c2F)cc1, the IC50 [1] is reported as 1.11 µM (active).

For COc1cc(C(=O)NCCOc2cc(C)cc(C)c2)cc(OC)c1OC, the EC50 [2] was 16.3 µM (active), the EC50 [3] was 5.25 µM (active) and the EC50 [4] was 17.1 µM (inconclusive). For the same molecule, the EC50 [5] was 4.9 µM (active), the AC50 [6] was 16.9 µM (active) and the AC50 [7] was 24.7 µM (active).

In the case of C[C@H](CO)N1C[C@H](C)[C@@H](CN(C)S(=O)(=O)c2ccc(-c3ccccc3)cc2)OCc2cn(nn2)CCCC1=O, the AC50 [8] is reported as 3.99 µM (active), the AC50 [9] is reported as > 70 µM (inactive) and the AC50 [10] is reported as > 70 µM (inactive). For the same molecule, the AC50 [11] was > 70 µM (inactive).

With O=C(Nc1ccccc1F)N1CCCCN2[C@H](CO)[C@@H](c3ccc(/C=C/c4ccccc4)cc3)[C@@H]2C1 the AC50 [12] was 6.45 µM (active).

In the case of Cc1ccc(S(=O)(=O)NC(=O)NN2CCCCCC2)cc1 [TOLAZAMIDE], the IC50 [13] is reported as 6.98 µM (inactive) and the IC50 [14] is reported as > 33.3 µM (inactive).

For O=C(NCc1ccccc1)c1ccc2nc(-c3ccco3)c(-c3ccco3)nc2c1, the IC50 [15] was < 0.023 µM (not active), the IC50 [16] was 11.1 µM (active) and the IC50 [17] was 4.26 µM (active). For the same molecule, the IC50 [18] was 3.99 µM (active).

For COc1ccc(-c2cc(C(F)(F)F)nc(S(=O)(=O)CCCC(=O)Nc3cccnc3Cl)n2)cc1OC, the EC50 [19] was 25 µM (not active), the AC50 [20] was 3.17 µM (active) and the AC50 [21] was 13.8 µM (active). For the same molecule, the AC50 [22] was 11.6 µM (active).

In the case of c1ccc2sc(SSc3nc4ccccc4s3)nc2c1 [BENZOTHIAZYL DISULFIDE], the IC50 [23] is reported as 5.58 µM (inactive) and the IC50 [24] is reported as 9.23 µM (inactive).

In the case of Cc1ccc(OCC(=O)Nc2ccc(-c3nc4ncccc4o3)cc2)cc1, the IC50 [25] is reported as > 100 µM (not active), the EC50 [26] is reported as 0.0155 µM (active) and the EC50 [27] is reported as 31.6 nM (active) and 61.1 nM (active).
